The nature of assay [1]: HEK-293T viability loss after treatment – luminescence, T-cell screen hits, cytotoxicity control for TCR NF-kB inhibitor project, dose response (AID 489026).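 Further: cells exposed to compound about 14 hours before the viability readout.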 Type of assay: functional, cell-based.
For assay [2], the target named is Nonstructural protein 1 (Influenza A virus, UniProt Q194T2). The format is functional, Influenza A virus (A/California/07/2009(H1N1)).
Assay [3] has as its target T1, Protein skinhead-1 (Caenorhabditis elegans, UniProt P34707).
T1 sequence (P34707 whole entry): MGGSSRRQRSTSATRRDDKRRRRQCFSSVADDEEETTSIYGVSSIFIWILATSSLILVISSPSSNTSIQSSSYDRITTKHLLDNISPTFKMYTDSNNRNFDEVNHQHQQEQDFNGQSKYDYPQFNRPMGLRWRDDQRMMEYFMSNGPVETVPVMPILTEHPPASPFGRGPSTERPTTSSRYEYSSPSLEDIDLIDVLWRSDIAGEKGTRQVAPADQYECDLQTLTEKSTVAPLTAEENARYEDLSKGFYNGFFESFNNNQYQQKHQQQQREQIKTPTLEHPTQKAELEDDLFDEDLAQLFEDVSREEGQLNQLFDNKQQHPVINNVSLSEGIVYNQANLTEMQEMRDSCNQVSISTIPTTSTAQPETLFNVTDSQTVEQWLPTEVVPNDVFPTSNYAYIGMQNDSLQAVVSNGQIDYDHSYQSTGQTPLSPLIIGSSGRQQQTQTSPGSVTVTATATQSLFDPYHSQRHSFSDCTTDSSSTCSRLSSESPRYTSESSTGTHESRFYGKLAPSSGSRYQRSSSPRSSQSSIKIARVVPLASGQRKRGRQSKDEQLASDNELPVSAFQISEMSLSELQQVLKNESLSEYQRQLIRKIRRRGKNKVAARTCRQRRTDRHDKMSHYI
The format is functional.

A short description of assay [4]: DRD fibroblast viability loss – cell-based, non-viral oncogenic, luminescence, dose response (AID 1934). Type of assay: functional. Particulars: Homo sapiens.
The test system of assay [5] is BJ. Briefly: BJ-TERT-LT-ST fibroblast viability loss – cell-based, RAS-independent, luminescence, dose response (AID 1935).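 Further: BJ fibroblasts immortalized with TERT plus LT and ST oncogenes.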 The format is functional. Particulars: Homo sapiens.
Assay [6] is described as follows: NIH-3T3 fibroblast cytotoxicity, dose response, cytotoxicity control, cell-based, fluorescence, Alamar Blue, secondary assay (AID 2327).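 Further: NIH-3T3 mouse fibroblasts cultured with fluconazole at 8 µg/mL.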 The format is functional.
The subject of assay [7] is BJ. As to the kind of experiment: cells. The format is functional, cell-based. Particulars: Homo sapiens.
The nature of assay [8]: fluconazole-exposed Candida albicans growth modulators – fluorescence, retest, confirmation (AID 2467). Type of assay: functional, cell-based.
Assay [9] concerns BJ. Briefly: BJ-TERT fibroblast viability loss – cell-based, RAS-independent, luminescence, dose response (AID 1933). The format is functional. The conditions noted are these: Homo sapiens.
For assay [10], the target named is T2, Fatty acid synthase (Homo sapiens, UniProt P49327). Briefly: inhibition of human FAS-TE enzyme activity – biochemical, kinetic fluorescence intensity, dose response (AID 624326).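 Further: rate of fluorescence rise from hydrolysis of a fluorogenic O-methyl fluorescein ester substrate.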 Type of assay: functional.
T2 sequence (P49327 whole entry): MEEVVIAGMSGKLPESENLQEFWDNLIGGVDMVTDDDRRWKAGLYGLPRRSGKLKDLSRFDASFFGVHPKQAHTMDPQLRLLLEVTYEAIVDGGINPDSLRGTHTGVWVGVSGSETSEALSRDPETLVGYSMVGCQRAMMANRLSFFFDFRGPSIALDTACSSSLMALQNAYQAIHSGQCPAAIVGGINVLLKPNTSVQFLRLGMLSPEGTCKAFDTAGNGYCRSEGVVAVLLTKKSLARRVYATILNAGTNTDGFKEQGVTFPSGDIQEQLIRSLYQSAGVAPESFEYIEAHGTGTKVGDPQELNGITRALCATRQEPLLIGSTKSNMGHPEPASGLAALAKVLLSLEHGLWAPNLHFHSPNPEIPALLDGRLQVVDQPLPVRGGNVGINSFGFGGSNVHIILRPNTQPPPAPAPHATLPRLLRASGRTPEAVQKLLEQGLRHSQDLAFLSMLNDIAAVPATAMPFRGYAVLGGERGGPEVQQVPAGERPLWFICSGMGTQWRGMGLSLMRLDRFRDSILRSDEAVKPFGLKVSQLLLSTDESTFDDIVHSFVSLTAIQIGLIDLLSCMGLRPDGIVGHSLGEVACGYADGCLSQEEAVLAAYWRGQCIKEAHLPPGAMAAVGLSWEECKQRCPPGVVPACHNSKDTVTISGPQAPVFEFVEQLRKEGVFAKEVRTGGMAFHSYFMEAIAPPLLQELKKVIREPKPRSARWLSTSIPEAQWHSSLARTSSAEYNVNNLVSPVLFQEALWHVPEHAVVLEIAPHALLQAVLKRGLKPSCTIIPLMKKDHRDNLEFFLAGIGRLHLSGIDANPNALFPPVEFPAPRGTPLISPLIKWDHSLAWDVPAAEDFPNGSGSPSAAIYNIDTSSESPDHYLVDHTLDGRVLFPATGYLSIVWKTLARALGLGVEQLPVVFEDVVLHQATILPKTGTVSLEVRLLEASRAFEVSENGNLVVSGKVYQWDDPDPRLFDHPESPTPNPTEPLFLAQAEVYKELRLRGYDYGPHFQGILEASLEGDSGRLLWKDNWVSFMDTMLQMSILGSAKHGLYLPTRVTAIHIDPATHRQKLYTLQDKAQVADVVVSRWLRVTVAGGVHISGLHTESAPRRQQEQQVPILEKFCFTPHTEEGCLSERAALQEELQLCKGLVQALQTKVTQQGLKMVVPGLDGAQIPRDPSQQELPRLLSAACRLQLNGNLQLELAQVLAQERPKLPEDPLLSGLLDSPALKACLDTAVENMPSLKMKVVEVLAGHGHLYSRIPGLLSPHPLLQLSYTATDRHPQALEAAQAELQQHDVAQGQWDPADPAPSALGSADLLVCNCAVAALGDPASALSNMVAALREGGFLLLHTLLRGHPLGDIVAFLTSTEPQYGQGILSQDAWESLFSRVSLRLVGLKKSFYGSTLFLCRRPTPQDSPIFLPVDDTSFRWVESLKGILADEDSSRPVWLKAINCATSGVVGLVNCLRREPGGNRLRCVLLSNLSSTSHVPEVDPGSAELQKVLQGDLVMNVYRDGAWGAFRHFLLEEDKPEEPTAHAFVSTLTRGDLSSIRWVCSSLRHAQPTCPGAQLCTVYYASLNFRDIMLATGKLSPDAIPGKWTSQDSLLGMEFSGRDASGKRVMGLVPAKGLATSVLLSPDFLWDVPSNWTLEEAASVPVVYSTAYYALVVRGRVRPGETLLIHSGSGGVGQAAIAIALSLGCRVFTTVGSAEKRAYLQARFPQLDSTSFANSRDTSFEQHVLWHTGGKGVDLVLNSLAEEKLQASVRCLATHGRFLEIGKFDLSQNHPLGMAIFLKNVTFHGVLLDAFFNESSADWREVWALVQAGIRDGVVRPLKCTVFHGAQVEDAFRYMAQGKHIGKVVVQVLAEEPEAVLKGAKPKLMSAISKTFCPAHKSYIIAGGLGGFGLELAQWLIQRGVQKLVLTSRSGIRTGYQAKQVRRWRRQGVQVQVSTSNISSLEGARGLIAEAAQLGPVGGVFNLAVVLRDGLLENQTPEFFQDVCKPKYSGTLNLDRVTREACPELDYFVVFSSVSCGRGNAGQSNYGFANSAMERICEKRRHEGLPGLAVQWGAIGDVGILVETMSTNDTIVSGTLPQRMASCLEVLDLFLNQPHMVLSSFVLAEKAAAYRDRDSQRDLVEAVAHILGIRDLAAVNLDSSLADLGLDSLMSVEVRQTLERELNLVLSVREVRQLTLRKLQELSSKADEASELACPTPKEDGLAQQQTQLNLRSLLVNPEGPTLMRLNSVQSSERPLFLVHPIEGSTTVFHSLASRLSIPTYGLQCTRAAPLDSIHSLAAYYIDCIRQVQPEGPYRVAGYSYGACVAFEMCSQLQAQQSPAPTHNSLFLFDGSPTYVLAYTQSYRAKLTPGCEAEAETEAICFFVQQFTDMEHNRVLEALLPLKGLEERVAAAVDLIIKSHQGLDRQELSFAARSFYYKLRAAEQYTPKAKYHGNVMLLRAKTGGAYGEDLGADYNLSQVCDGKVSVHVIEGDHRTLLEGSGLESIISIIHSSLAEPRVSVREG
Assay [11] deals with T2, Fatty acid synthase. Briefly: inhibition of human FAS-TE enzyme activity – biochemical, endpoint fluorescence intensity, uHTS hits, dose response (AID 624327).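 Further: fluorescence from hydrolysis of an O-methyl fluorescein acyl ester substrate by the enzyme.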 The format is functional.
Assay [12] addresses Induced myeloid leukemia cell differentiation protein Mcl-1 (Homo sapiens, UniProt Q07820). The format is functional.
Assay [13] concerns the target Cytochrome P450 2C9 (Homo sapiens, UniProt P11712).
Assay [14] is described as follows: viability of uninfected HEp-2 cells – cell-based, HTS, cytotoxicity control for RSV inhibitor project, dose response (AID 2410). Particulars: human respiratory syncytial virus. The format is functional.
The subject of assay [15] is Streptococcus sp. 'group A'. As to the kind of experiment: Streptococcus pyogenes SK(-)GAS viability under kanamycin – luminescence, BacTiterGlo, confirmation, counter-screen for streptokinase expression inhibitor project, dose response (AID 1900). The format is functional, organism-based.
Assay [16] has as its system Streptococcus. As to the kind of experiment: GAS UMAA2166 growth inhibition – luminescence, BacTiterGlo, counter-screen for streptokinase expression inhibitor project, dose response (AID 1915).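 Further: potency for reduction of bacterial viability or growth.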 The format is functional, organism-based. On the technique in general: A counterscreen serves to expose hits that act by an unwanted route or on another target.
Assay [17] has as its target Large T antigen (Simian virus 40, UniProt P03070). The format is functional, Betapolyomavirus macacae.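 Further: Confirmatory-stage PubChem screen for compounds that inhibit SV40 T antigen.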
The nature of assay [18]: Luminescence Cell-Based Dose Response HTS to Identify Inhibitors of 5'UTR Stem-Loop Driven Prion Protein mRNA Translation in H4 Neuroglioblastoma Cells. [Related pubchem assays: 1827 (Project Summary), 1813 (Primary HTS)]. Type of assay: functional.
A short description of assay [19]: luciferase reporter signal suppression in cells – H4 neuroglioma cells, luminescence, dose response (AID 1990). Type of assay: functional, cell-based. (In general: In a reporter assay the amount or activity of a reporter protein is the signal.)
A short description of assay [20]: alpha-synuclein stem-loop luciferase translation blockers – H4 neuroglioma cells, luminescence, confirmation (AID 1988). Type of assay: functional, cell-based.
The nature of assay [21]: HIV-1 AD8 envelope cell-cell fusion blockers – cherry-pick, dose response (AID 652062).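 Further: luciferase signal from cell-cell fusion driven by HIV-1 clade B AD8 Env; potency is for inhibitors of fusion seen as a drop in luminescence.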 Type of assay: functional, cell-based.

Data on 16 molecules can be found in ChEMBL document CHEMBL1201862, “PubChem BioAssay data set” (2004).

The source made the active and inactive calls.

Nonstructural protein 1, sequence (Q194T2 whole entry): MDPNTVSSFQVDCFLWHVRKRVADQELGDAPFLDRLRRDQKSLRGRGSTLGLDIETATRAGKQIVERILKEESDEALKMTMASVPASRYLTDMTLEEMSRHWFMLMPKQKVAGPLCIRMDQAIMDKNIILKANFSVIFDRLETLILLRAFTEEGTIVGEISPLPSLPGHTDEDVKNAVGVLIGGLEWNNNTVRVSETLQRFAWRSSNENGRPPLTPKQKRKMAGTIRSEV
Large T antigen, sequence (P03070 whole entry): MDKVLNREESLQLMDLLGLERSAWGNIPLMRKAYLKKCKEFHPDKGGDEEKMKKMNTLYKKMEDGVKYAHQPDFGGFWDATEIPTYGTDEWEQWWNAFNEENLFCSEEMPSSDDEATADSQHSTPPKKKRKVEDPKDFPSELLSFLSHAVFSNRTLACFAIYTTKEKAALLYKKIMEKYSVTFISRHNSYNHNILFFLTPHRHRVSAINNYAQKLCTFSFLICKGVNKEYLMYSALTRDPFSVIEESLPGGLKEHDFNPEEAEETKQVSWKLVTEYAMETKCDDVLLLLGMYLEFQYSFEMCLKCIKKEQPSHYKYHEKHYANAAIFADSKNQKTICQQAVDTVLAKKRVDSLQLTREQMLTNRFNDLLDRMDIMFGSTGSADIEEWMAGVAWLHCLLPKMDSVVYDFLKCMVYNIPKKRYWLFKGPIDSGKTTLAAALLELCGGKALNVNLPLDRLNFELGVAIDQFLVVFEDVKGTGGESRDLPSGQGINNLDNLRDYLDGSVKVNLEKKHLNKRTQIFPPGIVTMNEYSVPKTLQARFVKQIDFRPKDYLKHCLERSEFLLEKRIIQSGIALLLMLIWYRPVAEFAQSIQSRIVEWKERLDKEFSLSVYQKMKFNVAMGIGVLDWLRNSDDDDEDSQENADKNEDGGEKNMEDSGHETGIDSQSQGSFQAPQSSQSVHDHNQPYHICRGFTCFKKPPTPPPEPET
Induced myeloid leukemia cell differentiation protein Mcl-1, sequence (Q07820 whole entry): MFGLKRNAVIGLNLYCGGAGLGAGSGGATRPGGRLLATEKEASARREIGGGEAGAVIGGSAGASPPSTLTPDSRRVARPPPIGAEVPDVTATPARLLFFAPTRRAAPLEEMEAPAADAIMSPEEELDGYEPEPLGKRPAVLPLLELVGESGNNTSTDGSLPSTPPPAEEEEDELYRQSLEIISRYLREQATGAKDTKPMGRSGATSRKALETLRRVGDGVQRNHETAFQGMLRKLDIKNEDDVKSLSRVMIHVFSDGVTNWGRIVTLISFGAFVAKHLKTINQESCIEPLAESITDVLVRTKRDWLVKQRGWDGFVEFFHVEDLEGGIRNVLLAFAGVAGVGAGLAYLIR
Cytochrome P450 2C9, sequence (P11712 whole entry): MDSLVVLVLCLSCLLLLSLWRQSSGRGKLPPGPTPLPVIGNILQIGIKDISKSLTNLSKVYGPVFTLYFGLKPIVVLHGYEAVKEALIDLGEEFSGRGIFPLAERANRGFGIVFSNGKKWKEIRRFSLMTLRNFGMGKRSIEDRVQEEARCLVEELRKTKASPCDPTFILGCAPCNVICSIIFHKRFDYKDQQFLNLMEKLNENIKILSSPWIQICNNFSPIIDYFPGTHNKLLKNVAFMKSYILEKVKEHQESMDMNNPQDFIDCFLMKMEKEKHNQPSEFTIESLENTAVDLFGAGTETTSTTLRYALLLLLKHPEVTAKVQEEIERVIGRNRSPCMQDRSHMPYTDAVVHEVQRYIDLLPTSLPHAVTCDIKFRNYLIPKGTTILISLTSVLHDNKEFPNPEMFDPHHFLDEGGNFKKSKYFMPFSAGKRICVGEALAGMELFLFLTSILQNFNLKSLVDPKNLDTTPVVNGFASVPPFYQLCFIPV

Turning to `COc1ccc(S(=O)(=O)Nc2cccc(-c3ccc4nncn4n3)c2)cc1F`, the IC50 (in general, the point on the concentration scale where inhibition reaches its midpoint) in [1] is > 80 µM (inactive).
Take `O=C(NCCCn1ccnc1)C(=O)NCC(c1cccnc1)N1CCN(c2ccc(F)cc2)CC1` (configuration not stated): in assay [2], the IC50 is > 100 µM (active).
Turning to `CC(=O)NC(Cc1ccc(F)cc1)C(=O)N1CCN(C(=O)NCc2ccccc2)CC1` (configuration not stated), the IC50 in [3] was > 100 µM (inactive).
Turning to `CCOc1ccc2c(c1)OC(c1ccc(C)cc1)(C(F)(F)F)NC2=O` (configuration not stated), the IC50 in assay [1] was > 80 µM (inactive). Besides, the EC50 – broadly, the midpoint of the concentration-response curve – in [4] was 11.7 µM (inconclusive); in [5] it was 1.32 µM (inconclusive); in [6], > 160 µM (inconclusive); in [7], 29.9 µM (inconclusive); in assay [8], > 38 µM (not active); in assay [9] it was 4.54 µM (inconclusive).
As to `CCCn1c(SCC(=O)Nc2ccccc2-c2ccccc2)nnc1-c1ccoc1C`, the IC50 in assay [10] was 7.42 µM (active); in [11] it was 8.34 µM (active).
As for `CCCCCn1c(N)c(C(=O)NCCN2CCOCC2)c2nc3ccccc3nc21`, the IC50 in assay [3] was > 100 µM (inactive).
As to `O=C(/C=C/c1cccc([N+](=O)[O-])c1)NCCSCc1ccc(Cl)cc1Cl`, the values for the IC50 in assay [10] and in assay [11] were 9.88 µM (active) and 10.4 µM (active), respectively.
With `O=C(Nc1nc(-c2ccc(S(=O)(=O)N3CCCC3)cc2)cs1)c1ccco1`, in [10], the IC50 was 4.05 µM (active).
With `CSC1=N/C(=C\c2ccccc2F)C(=O)S1`, the IC50 in [12] is 24.7 µM (not active).
Turning to `CCn1c2ccccc2c2cc(NC(=O)CSc3nnc(-c4ccc(OC)c(OC)c4)n3N)ccc21`, the IC50 in assay [3] is > 100 µM (inactive). In addition, in [13], the AC50 (as a rule, the concentration at which the activity in the assay is half-maximal) was 22.4 µM (inconclusive). Moreover, the CC50 (in general, the concentration giving 50% cytotoxicity) in assay [14] is > 50 µM (active).
In the case of `c1ccc(-c2cc3c(N4CCOCC4)ncnc3s2)cc1`, in assay [3], the IC50 was > 100 µM (inactive).
As for `Cc1c(N=N/C(C#N)=C(\O)c2ccccc2)c(=O)n(-c2ccccc2)n1C`, the EC50 in assay [15] was 2.43 µM (active); in assay [16], 7.26 µM (active). Further, the IC50 in assay [2] is 8.08 µM (active).
As for `O=C(/C=C/c1ccc(Cl)cc1Cl)Nc1ccc(CN2CCOCC2)cc1`, the IC50 in assay [3] was 27 µM (active).
On to `COc1cc(/C=C(\C#N)c2ccccn2)cc(OC)c1O`, for which the IC50 in [17] was 14.5 µM (active).
`O=C(CSc1n[nH]c(-c2ccccn2)n1)Nc1ccccc1`: the EC50 in assay [18], in assay [19] and in assay [20] was > 120 µM (not active) in each case. Besides, the IC50 in assay [2] was 5.02 µM (active).
Consider `COc1ccc(N2CCN(C(=O)C3CCC(Cn4c(=S)[nH]c5ccccc5c4=O)CC3)CC2)cc1` (configuration not stated), for which the AC50 in assay [21] was 10 µM (active). Besides, in [2], the IC50 was > 100 µM (active).
